Active and inactive are the calls of the source. No cut-off for these calls is given here.
Experiments:
[1] = molecular target: T1, ALK tyrosine kinase receptor (Homo sapiens, UniProt Q9UM73)
Description: Inhibition of human ALK kinase domain (1058 to 1620 residues) expressed in baculovirus expression system using biotin-poly-GT as substrate pre-incubated for 10 mins followed by ATP addition and measured after 60 mins by HTRF method

[2] = molecular target: T2, High affinity nerve growth factor receptor (Homo sapiens, UniProt P04629); assay: Inhibition of N-terminal GST-tagged human TrkA kinase domain (436 to 790 residues) expressed in baculovirus expression system using biotin-poly-GT as substrate pre-incubated for 5 mins followed by ATP addition and measured after 60 mins by alpha screen assay
[3] = molecular target: T1, ALK tyrosine kinase receptor; type: cell-based, HEK293
Description: Inhibition of recombinant human ALK expressed in HEK293 cells assessed as reduction in ALK autophosphorylation at Tyr1604 residue incubated for 60 mins by sandwich ELISA

MDR1 (ABCB1, P-gp) = MDR1 (ABCB1, P-gp) (Homo sapiens, UniProt P08183); assay: Substrate activity at human MDR1 expressed in pig LLC-PK1 cells assessed as efflux ratio of apparent permeability across basolateral to apical over apical to basolateral side at 10 uM after 2 hrs by LC/MS/MS analysis; type: ADME, cell-based
Focal adhesion kinase 1 [4] = molecular target: T3, Focal adhesion kinase 1 (Homo sapiens, UniProt Q05397); assay: Inhibition of human FAK kinase domain (411 to 686 residues) expressed in baculovirus expression system using biotin-poly-GT as substrate pre-incubated for 10 mins followed by ATP addition and measured after 60 mins by HTRF method
Focal adhesion kinase 1 [5] = molecular target: T3, Focal adhesion kinase 1; assay: Inhibition of full-length N-terminal FLAG-tagged FAK (unknown origin) expressed in baculovirus expression system at 100 nM preincubated for 5 mins followed by ATP addition and measured after 60 mins by alphascreen assay relative to control
Target sequence in this assay (Q05397 2-1052 limits assumed): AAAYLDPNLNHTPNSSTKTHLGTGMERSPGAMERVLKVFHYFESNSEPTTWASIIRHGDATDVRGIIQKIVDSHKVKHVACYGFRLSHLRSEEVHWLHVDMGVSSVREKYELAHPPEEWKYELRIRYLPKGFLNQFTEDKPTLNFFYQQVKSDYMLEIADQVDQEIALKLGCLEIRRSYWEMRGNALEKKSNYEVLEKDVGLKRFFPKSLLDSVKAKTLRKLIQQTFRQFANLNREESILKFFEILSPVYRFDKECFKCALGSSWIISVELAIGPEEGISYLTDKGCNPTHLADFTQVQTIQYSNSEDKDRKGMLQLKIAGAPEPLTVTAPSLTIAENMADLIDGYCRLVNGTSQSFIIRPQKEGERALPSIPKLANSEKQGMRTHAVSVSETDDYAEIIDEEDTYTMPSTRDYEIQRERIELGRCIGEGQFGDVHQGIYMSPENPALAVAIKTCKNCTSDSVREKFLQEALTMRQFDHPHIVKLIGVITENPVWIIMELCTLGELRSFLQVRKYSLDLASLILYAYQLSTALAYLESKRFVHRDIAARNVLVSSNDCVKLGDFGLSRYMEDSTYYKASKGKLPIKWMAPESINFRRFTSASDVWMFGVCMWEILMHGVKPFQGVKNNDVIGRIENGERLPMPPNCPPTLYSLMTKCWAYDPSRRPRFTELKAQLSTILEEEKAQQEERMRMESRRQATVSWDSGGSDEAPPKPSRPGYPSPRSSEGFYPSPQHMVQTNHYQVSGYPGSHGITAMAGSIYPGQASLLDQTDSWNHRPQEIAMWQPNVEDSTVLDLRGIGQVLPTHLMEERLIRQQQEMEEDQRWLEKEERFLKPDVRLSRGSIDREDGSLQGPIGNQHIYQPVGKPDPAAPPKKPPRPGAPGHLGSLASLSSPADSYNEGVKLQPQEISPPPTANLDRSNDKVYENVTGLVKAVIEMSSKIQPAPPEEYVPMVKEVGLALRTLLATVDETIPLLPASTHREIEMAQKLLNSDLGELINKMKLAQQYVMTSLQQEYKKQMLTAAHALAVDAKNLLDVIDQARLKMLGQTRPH

[6] = molecular target: T2, High affinity nerve growth factor receptor; assay: Inhibition of TRKA (unknown origin) at 100 nM by [gamma-33P]ATP-based radiometric or Alphascreen assay relative to control
[7] = molecular target: Cyclin-dependent kinase 2 (Homo sapiens) (UniProt P24941); assay: Inhibition of CDK2 (unknown origin) at 100 nM by [gamma-33P]ATP-based radiometric or Alphascreen assay relative to control
[8] = molecular target: Protein kinase C theta type (Homo sapiens) (UniProt Q04759); assay: Inhibition of N-terminal FLAG-tagged PKCtheta (unknown origin) expressed in baculovirus expression system at 100 nM using pGS peptide as substrate preincubated for 5 mins followed by [gamma-33P]ATP addition and measured after 30 mins by topcount scintillation counting method relative to control
[9] = molecular target: Vascular endothelial growth factor receptor 2 (Homo sapiens) (UniProt P35968); assay: Inhibition of N-terminal FLAG-tagged VEGFR2 (unknown origin) expressed in baculovirus expression system at 100 nM preincubated for 5 mins followed by ATP addition and measured after 10 mins by alphascreen assay relative to control
[10] = molecular target: Mitogen-activated protein kinase kinase kinase 5 (Homo sapiens) (UniProt Q99683); assay: Inhibition of N-terminal FLAG-tagged ASK1 (unknown origin) expressed in baculovirus expression system at 100 nM using myelin basic protein as substrate preincubated for 5 mins followed by [gamma-33P]ATP addition and measured after 60 mins by topcount scintillation counting method relative to control
[11] = molecular target: Epidermal growth factor receptor (Homo sapiens) (UniProt P00533); assay: Inhibition of human N-terminal DYKDDDD-tagged EGFR cytoplasmic domain (669 to 1210 residues) expressed in baculovirus expression system at 100 nM using poly-Glu-Tyr(4:1) as substrate preincubated for 5 mins followed by [gamma-33P]ATP addition and measured after 10 mins by topcount scintillation counting method relative to control
[12] = molecular target: Dual specificity mitogen-activated protein kinase kinase 1 (Homo sapiens) (UniProt Q02750); assay: Inhibition of N-terminal GST-fused MEK1 (unknown origin) expressed in FreeStyle 293 cells at 100 nM using GST-ERK1(K71A) as substrate preincubated for 5 mins followed by [gamma-33P]ATP addition and measured after 20 mins by topcount scintillation counting method relative to control
[13] = molecular target: Cell division cycle 7-related protein kinase (Homo sapiens) (UniProt O00311); assay: Inhibition of CDC7 (unknown origin) at 100 nM by [gamma-33P]ATP-based radiometric or Alphascreen assay relative to control
[14] = molecular target: Ephrin type-A receptor 5 (Homo sapiens) (UniProt P54756); assay: Inhibition of EPHA5 (unknown origin) at 100 nM by [gamma-33P]ATP-based radiometric or Alphascreen assay relative to control
[15] = molecular target: Phosphatidylinositol 4,5-bisphosphate 3-kinase catalytic subunit alpha isoform (Homo sapiens) (UniProt P42336); assay: Inhibition of PI3Kalpha (unknown origin) at 100 nM by [gamma-33P]ATP-based radiometric or Alphascreen assay relative to control
[16] = molecular target: Mitogen-activated protein kinase 14 (Homo sapiens) (UniProt Q16539); assay: Inhibition of N-terminal FLAG-tagged p38alpha (unknown origin) expressed in baculovirus expression system at 100 nM using myelin basic protein as substrate preincubated for 5 mins followed by [gamma-33P]ATP addition and measured after 60 mins by topcount scintillation counting method relative to control
[17] = molecular target: Hepatocyte growth factor receptor (Homo sapiens) (UniProt P08581); assay: Inhibition of recombinant human N-terminal GST-fused/His6-tagged c-MET (956 to 1390 residues) expressed in baculovirus infected Spodoptera frugiperda cells at 100 nM preincubated for 5 mins followed by ATP addition and measured after 10 mins by alphascreen assay relative to control
[18] = molecular target: Interleukin-1 receptor-associated kinase 4 (Homo sapiens) (UniProt Q9NWZ3); assay: Inhibition of IRAK4 (unknown origin) at 100 nM by [gamma-33P]ATP-based radiometric or Alphascreen assay relative to control
[19] = molecular target: Serine/threonine-protein kinase Chk1 (Homo sapiens) (UniProt O14757); assay: Inhibition of CHEK1 (unknown origin) at 100 nM by [gamma-33P]ATP-based radiometric or Alphascreen assay relative to control
[20] = Fraction unbound in ICR mouse brain at 1 umol/L measured for 16 to 20 hrs by equilibrium dialysis based LC-MS/MS analysis; type: ADME, tissue-based; conditions: 1 µM
[21] = Drug level in Jcl-ICR mouse plasma at 100 mg/kg, ip measured at 1 hr by LC/MS/MS analysis; type: ADME, organism-based
[22] = Drug level in Jcl-ICR mouse brain at 100 mg/kg, ip measured at 1 hr by LC/MS/MS analysis; type: ADME, organism-based; conditions: read-out: Drug uptake
[23] = Brain to plasma partition coefficient, Kp of the compound in Jcl-ICR mouse at 100 mg/kg, ip measured at 1 hr by LC/MS/MS analysis; type: ADME, organism-based
[24] = Brain to plasma partition coefficient, Kp of the compound in Jcl-ICR mouse at 100 mg/kg, ip measured at 2 hrs by LC/MS/MS analysis; type: ADME, organism-based
[25] = Unbound brain-to-plasma concentration ratio in Jcl-ICR mouse at 100 mg/kg, ip measured at 0.5 hrs by LC/MS/MS analysis; type: ADME, organism-based; conditions: read-out: K(p,uu,brain)
Mus musculus [26] = assay: In-vivo inhibition of ALK in ip dosed ICR mouse hippocampus assessed as reduction in phosphorylated ALK level after 1 hr by Western blot analysis; type: functional, organism-based
Mus musculus [27] = assay: In-vivo inhibition of ALK in ICR mouse prefrontal cortex assessed as reduction in phosphorylated ALK level at 100 mg/kg, ip after 1 hr by Western blot analysis; type: functional, organism-based

T1 sequence (Q9UM73 whole entry, the tested form may be a part): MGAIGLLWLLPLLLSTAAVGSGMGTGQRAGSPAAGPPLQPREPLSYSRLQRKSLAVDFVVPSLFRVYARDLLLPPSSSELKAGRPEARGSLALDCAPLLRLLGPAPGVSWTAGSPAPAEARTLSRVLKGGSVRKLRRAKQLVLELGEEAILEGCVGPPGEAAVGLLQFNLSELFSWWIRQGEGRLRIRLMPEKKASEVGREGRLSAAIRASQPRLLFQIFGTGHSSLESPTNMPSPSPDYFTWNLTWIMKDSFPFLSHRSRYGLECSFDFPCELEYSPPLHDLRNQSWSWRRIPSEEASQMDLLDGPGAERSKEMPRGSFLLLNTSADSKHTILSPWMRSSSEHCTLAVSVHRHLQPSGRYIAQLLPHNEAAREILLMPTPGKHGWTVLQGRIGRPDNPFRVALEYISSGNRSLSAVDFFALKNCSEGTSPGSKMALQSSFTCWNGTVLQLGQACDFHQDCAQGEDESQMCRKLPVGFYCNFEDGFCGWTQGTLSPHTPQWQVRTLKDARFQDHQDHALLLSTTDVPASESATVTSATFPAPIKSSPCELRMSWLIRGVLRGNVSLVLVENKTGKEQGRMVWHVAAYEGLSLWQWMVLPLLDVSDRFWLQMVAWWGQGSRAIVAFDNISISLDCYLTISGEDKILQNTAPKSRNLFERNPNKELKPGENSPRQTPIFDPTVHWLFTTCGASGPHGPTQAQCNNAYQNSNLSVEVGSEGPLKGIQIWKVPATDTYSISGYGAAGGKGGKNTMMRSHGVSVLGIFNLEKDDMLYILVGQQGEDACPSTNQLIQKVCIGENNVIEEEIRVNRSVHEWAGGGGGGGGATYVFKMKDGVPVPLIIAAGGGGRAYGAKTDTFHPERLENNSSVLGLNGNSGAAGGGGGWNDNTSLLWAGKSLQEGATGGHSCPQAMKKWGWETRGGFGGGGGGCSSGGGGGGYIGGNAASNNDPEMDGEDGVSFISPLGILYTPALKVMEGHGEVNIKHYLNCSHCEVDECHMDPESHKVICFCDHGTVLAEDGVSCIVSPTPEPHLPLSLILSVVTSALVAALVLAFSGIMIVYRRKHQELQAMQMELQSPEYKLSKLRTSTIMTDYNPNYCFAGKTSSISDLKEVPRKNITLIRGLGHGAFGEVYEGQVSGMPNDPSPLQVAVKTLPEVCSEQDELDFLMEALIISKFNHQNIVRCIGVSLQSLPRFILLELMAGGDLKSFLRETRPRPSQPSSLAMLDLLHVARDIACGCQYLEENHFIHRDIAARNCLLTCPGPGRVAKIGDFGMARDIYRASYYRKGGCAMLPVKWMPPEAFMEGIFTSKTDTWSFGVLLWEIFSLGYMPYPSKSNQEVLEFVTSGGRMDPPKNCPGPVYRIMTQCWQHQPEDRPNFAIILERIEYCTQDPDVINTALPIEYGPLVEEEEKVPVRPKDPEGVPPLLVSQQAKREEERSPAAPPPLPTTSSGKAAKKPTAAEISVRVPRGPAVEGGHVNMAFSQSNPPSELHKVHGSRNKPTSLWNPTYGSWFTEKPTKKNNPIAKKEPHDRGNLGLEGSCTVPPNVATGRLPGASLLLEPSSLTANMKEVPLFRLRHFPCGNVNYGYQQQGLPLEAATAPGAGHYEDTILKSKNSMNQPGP
Chain of Interleukin-1 receptor-associated kinase 4 (Homo sapiens) (Q9NWZ3 whole entry): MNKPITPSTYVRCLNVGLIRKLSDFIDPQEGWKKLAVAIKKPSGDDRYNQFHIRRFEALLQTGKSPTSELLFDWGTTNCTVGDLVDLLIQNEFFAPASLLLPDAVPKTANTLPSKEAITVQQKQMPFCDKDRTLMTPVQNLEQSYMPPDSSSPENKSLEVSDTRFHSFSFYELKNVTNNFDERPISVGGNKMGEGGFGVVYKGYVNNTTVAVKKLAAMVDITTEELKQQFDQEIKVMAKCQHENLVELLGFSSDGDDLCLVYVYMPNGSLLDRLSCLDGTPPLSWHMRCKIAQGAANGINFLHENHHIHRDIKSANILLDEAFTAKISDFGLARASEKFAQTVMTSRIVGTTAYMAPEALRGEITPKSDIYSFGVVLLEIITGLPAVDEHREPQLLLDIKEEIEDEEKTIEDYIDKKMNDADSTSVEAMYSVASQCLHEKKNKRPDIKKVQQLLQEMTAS
Chain of MDR1 (ABCB1, P-gp) (P08183 whole entry, the tested form may be a part): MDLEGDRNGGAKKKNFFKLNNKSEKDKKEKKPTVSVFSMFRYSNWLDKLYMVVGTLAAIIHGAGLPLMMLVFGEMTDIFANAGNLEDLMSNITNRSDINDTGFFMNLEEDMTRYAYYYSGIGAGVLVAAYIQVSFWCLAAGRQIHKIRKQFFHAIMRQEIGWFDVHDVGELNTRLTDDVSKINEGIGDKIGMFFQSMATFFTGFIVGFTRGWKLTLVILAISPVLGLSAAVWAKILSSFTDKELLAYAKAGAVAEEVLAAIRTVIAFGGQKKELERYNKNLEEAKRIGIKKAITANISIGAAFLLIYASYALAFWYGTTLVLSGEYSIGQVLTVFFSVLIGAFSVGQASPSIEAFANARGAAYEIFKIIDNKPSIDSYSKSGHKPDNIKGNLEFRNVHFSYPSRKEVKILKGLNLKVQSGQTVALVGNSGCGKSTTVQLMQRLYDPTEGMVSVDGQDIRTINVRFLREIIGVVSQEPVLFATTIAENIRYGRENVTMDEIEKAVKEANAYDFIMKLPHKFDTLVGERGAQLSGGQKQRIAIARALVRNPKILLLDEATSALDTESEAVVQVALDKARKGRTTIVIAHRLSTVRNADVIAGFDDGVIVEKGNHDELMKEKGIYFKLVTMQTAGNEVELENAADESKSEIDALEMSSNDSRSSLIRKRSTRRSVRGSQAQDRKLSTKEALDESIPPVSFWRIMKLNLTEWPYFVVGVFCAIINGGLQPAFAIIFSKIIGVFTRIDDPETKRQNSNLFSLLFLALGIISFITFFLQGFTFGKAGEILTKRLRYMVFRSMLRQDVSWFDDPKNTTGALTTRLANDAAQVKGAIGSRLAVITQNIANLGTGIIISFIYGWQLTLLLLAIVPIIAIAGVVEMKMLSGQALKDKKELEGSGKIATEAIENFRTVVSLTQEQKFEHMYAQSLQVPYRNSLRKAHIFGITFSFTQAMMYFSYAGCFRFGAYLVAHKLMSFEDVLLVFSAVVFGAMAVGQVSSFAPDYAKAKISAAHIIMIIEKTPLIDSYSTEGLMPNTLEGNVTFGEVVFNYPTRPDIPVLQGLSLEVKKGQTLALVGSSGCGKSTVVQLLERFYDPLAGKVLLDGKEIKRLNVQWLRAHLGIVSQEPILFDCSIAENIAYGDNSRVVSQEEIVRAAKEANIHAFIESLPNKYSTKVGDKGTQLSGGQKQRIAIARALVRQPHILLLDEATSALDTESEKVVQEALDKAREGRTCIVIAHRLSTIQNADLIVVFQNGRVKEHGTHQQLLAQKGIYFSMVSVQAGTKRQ
Chain of Protein kinase C theta type (Homo sapiens) (Q04759 whole entry, looked up): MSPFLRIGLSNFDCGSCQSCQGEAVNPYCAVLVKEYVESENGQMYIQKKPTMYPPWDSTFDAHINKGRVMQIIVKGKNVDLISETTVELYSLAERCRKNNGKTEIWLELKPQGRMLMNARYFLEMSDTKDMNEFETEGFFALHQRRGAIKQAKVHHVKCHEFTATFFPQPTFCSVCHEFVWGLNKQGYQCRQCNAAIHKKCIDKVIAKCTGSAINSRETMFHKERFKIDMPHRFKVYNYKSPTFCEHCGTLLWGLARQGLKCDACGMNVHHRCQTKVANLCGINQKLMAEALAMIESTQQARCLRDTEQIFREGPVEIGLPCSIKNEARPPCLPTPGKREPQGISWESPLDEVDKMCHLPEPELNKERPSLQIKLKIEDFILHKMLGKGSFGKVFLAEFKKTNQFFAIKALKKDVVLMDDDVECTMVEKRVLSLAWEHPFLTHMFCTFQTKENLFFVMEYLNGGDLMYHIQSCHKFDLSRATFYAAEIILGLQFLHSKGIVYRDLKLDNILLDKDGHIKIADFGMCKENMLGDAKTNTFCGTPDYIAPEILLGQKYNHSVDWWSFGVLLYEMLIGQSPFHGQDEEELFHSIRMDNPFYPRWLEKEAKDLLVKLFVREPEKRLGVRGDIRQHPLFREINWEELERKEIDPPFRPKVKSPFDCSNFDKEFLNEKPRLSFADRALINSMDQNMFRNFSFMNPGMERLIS

Cc1cc(-n2cc(C(=O)N3CCO[C@@H](C)C3)c3ccc(O[C@@H](C)c4ccc(F)cn4)nc32)n[nH]1
IC50 [1]: 2.9 nM
IC50 [2]: 2600 nM
IC50 [3]: 27 nM
efflux ratio at 2 h, 10 µM (MDR1 (ABCB1, P-gp)): 1
IC50 (Focal adhesion kinase 1 [4]): 25 nM
inhibition (Focal adhesion kinase 1 [5]): 83%
inhibition [6]: 9%
inhibition [7]: 5%
inhibition [8]: 2%
inhibition [9]: 2%
inhibition [10]: -1%
inhibition [11]: -1%
inhibition [12]: -1%
inhibition [13]: -2%
inhibition [14]: -2%
inhibition [15]: -2%
inhibition [16]: -4%
inhibition [17]: -5%
inhibition [18]: -7%
inhibition [19]: -9%
Fu [20]: 0.017%
concentration at 1 h [21]: 26200 ng/mL
concentration at 1 h [22]: 33400 ng/mL
Kp at 1 h [23]: 1.28
Kp at 2 h [24]: 0.515
Kp uu at 0.5 h [25]: 0.27
inhibition (Mus musculus [26]): Dose-dependent effect
inhibition (Mus musculus [27]): Active

— ChEMBL document CHEMBL4396868, “Discovery of Potent, Selective, and Brain-Penetrant 1 H-Pyrazol-5-yl-1 H-pyrrolo[2,3- b]pyridines as Anaplastic Lymphoma Kinase (ALK) Inhibitors” (J Med Chem, 2019)
